Test results as given in patent US9963463B2, “Urea-substituted indanes as P38 map kinase inhibitors” (TORRENT PHARMACEUTICALS LIMITED, priority 2014, dated 2018).

Biological target: T1, purified recombinant human p38 alpha MAPK (Homo sapiens, UniProt Q16539)
T1 construct: purchased Millipore, USA
Test: Inhibition of p38 alpha MAPK activity, TR-FRET kinase assay
Format: biochemical
Settings: for inhibition at 1 µM / inhibition at 0.1 µM: read-out: P38α Inhibition; for inhibition at 0.1 µM: Concentration 100 nM
Description: Inhibition of p38 Alpha MAPK Activity: Time-Resolved Fluorescence Resonance Energy Transfer Kinase Standard Assay (TR-FRET Assay)
Compounds of present invention at various concentrations were premixed with DMSO. The experiment was initiated by mixing 0.5%-1.0% DMSO as vehicle/compounds with purified recombinant human p38 alpha MAPK (Millipore, USA) in the wells and 15 min incubation at room temperature. Thereafter, 30 nM of Biotinylated GST-ATF2 (Activation transcription Factor2) and 100 μM of ATP were added in to the wells containing reaction mixture, followed by reincubation for 60 minutes at RT. Reaction was terminated by addition of 10 mM of EDTA and detection reagent containing anti-phosphotheronine ATF2 antibody (PerkinElmer®, USA) labeled with europium chelate and APC (Allophycocyanin) labeled streptavidin, into the reaction mixture which was further incubated for 60 minutes at room temperature. The degree of phosphorylation of the substrate (GST-ATF2) was measured using Envision multimode reader (PerkinElmer®). Percentage inhibition of p38 kinase activity was calculated by determining ratio of specific europium 665 nm energy transfer signal to reference 615 nm signal.

T1 sequence (Q16539 whole entry): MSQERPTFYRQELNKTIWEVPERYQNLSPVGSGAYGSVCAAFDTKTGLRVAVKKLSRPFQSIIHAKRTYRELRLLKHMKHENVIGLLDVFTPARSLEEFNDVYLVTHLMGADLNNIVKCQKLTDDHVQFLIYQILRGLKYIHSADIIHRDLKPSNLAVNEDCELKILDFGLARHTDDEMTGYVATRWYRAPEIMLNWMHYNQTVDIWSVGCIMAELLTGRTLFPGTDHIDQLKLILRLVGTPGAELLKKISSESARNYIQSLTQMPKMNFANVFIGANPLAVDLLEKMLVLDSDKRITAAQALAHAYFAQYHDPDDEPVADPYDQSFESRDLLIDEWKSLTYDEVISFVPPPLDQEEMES

inhibition at 1 µM (Concentration 1 μM) [%]	Compound	other results
< 20	Cc1ccc(-n2nc(C(C)(C)C)cc2NC(=O)Nc2cc(C)c(OCCN3CCn4c(nnc4-c4cc(Cl)ccc4O)C3)c3c2CCC3)cc1 [Compound 66, 1-[3-tert-butyl-1-(4-methylphenyl)-1H-pyrazol-5-yl]-3-(7-{2-[3-(5-chloro-2-hydroxyphenyl)-5,6-dihydro[1,2,4]triazolo[4,3-a]pyrazin-7(8H)-yl]ethoxy}-6-methyl-2,3-dihydro-1H-inden-4-yl)urea]	
80 to 100	Cc1ccc(-n2nc(C(C)(C)C)cc2NC(=O)Nc2ccc(OCCN3CCn4c(nnc4-c4cc(Cl)ccc4O)C3)c3c2CCC3)cc1 [Compound 38]	
80 to 100	CSc1ccccc1-c1nnc2n1CCN(CCOc1ccc(NC(=O)Nc3cc(C(C)(C)C)nn3-c3ccc(O)c(Cl)c3)c3c1CCC3)C2 [Compound 24, 1-[3-tert-butyl-1-(3-chloro-4-hydroxyphenyl)-1H-pyrazol-5-yl]-3-[7-(2-{3-[2-(methylsulfanyl)phenyl]-5,6-dihydro[1,2,4]triazolo[4,3-a]pyrazin-7(8H)-yl}ethoxy)-2,3-dihydro-1H-inden-4-yl]urea]	
80 to 100	Cc1ccc(-n2nc(C(C)(C)C)cc2NC(=O)Nc2ccc(OCCN3CCn4c(nnc4-c4ccc(O)cc4O)C3)c3c2CCC3)cc1 [Compound 37, 1-[3-tert-butyl-1-(4-methylphenyl)-1H-pyrazol-5-yl]-3-(7-{2-[3-(2,4-dihydroxyphenyl)-5,6-dihydro[1,2,4]triazolo[4,3-a]pyrazin-7(8H)-yl]ethoxy}-2,3-dihydro-1H-inden-4-yl)urea]	
60 to 80	CCCN1CCN(CCOc2ccc(NC(=O)Nc3cc(C(C)(C)C)nn3-c3ccc(C)cc3)c3c2CCC3)CC1=O [Compound 59, 1-[3-tert-butyl-1-(4-methylphenyl)-1H-pyrazol-5-yl]-3-{7-[2-(3-oxo-4-propylpiperazin-1-yl)ethoxy]-2,3-dihydro-1H-inden-4-yl}urea]	
80 to 100	Cc1ccc(-n2nc(C(C)(C)C)cc2NC(=O)Nc2ccc(OCCN3CCN(Cc4ccccc4)C(=O)C3)c3c2CCC3)cc1 [Compound 16, 1-{7-[2-(4-benzyl-3-oxopiperazin-1-yl)ethoxy]-2,3-dihydro-1H-inden-4-yl}-3-[3-tert-butyl-1-(4-methylphenyl)-1H-pyrazol-5-yl]urea]	
80 to 100	CCc1ccc(-n2nc(C(C)(C)C)cc2NC(=O)Nc2ccc(OCCN3CCn4c(nnc4-c4ccccc4OC)C3)c3c2CCC3)cc1 [Compound 23, 1-[3-tert-butyl-1-(4-ethylphenyl)-1H-pyrazol-5-yl]-3-(7-{2-[3-(2-methoxyphenyl)-5,6-dihydro[1,2,4]triazolo[4,3-a]pyrazin-7(8H)-yl]ethoxy}-2,3-dihydro-1H-inden-4-yl)urea]	
80 to 100	COc1ccccc1-c1nnc2n1CCN(CCOc1ccc(NC(=O)Nc3cc(C(C)(C)C)nn3-c3ccc(C)cc3)c3c1CCC3)C2 [Compound 14, 1-[3-tert-butyl-1-(4-methylphenyl)-1H-pyrazol-5-yl]-3-(7-{2-[3-(2-methoxyphenyl)-5,6-dihydro[1,2,4]triazolo[4,3-a]pyrazin-7(8H)-yl]ethoxy}-2,3-dihydro-1H-inden-4-yl)urea]	
80 to 100	Cc1ccc(-n2nc(C(C)(C)C)cc2NC(=O)Nc2ccc(OCCN3CCn4c(nnc4-c4cccc(Cl)c4O)C3)c3c2CCC3)cc1 [Compound 29, 1-[3-tert-butyl-1-(4-methylphenyl)-1H-pyrazol-5-yl]-3-(7-{2-[3-(3-chloro-2-hydroxyphenyl)-5,6-dihydro[1,2,4]triazolo[4,3-a]pyrazin-7(8H)-yl]ethoxy}-2,3-dihydro-1H-inden-4-yl)urea]	
80 to 100	Cc1ccc(-n2nc(C(C)(C)C)cc2NC(=O)Nc2ccc(OCCN3CCN(c4ccccc4)C(=O)C3)c3c2CCC3)cc1 [Compound 19, 1-[3-tert-butyl-1-(4-methylphenyl)-1H-pyrazol-5-yl]-3-{7-[2-(3-oxo-4-phenylpiperazin-1-yl)ethoxy]-2,3-dihydro-1H-inden-4-yl}urea]	

Continued, compound first:

Compound	inhibition at 1 µM (Concentration 1 μM) [%]	other results
COc1c(NC(=O)Nc2ccc(OCCN3CCN(CC4CC4)C(=O)C3)c3c2CCC3)cc(C(C)(C)C)cc1NS(C)(=O)=O [Compound 39, N-(5-tert-butyl-3-{[(7-{2-[4-(cyclopropylmethyl)-3-oxopiperazin-1-yl]ethoxy}-2,3-dihydro-1H-inden-4-yl)carbamoyl]amino}-2-methoxyphenyl)methanesulfonamide]	80 to 100	
CC(=O)Nc1cc2c(s1)CCN(C(=O)COc1ccc(NC(=O)Nc3cc(C(C)(C)C)nn3-c3ccc(C)cc3)c3c1CCC3)C2 [Compound 52, N-[5-({[7-({[3-tert-butyl-1-(4-methylphenyl)-1H-pyrazol-5-yl]carbamoyl}amino)-2,3-dihydro-1H-inden-4-yl]oxy}acetyl)-4,5,6,7-tetrahydrothieno[3,2-c]pyridin-2-yl] acetamide]	60 to 80	
COc1ccc(-n2nc(C(C)(C)C)cc2NC(=O)Nc2ccc(OCCN3CCN(CC4CC4)C(=O)C3)c3c2CCC3)cc1 [Compound 17, 1-[3-tert-butyl-1-(4-methoxyphenyl)-1H-pyrazol-5-yl]-3-(7-{2-[4-(cyclopropylmethyl)-3-oxopiperazin-1-yl]ethoxy}-2,3-dihydro-1H-inden-4-yl)urea]	60 to 80	
COc1ccc(-n2nc(C(C)(C)C)cc2NC(=O)Nc2ccc(OCC(=O)N3CCn4c(nnc4C(F)(F)F)C3)c3c2CCC3)cc1Cl [Compound 53, 1-[3-tert-butyl-1-(3-chloro-4-methoxyphenyl)-1H-pyrazol-5-yl]-3-(7-{2-oxo-2-[3-(trifluoromethyl)-5,6-dihydro[1,2,4]triazolo[4,3-a]pyrazin-7(8H)-yl]ethoxy}-2,3-dihydro-1H-inden-4-yl)urea]	40 to 60	
CC(C)(C)c1cc(NC(=O)Nc2ccc(OCCN3CCN(CC4CC4)C(=O)C3)c3c2CCC3)n(-c2ccc(F)cc2)n1 [Compound 60, 1-[3-tert-butyl-1-(4-fluorophenyl)-1H-pyrazol-5-yl]-3-(7-{2-[4-(cyclopropylmethyl)-3-oxopiperazin-1-yl]ethoxy}-2,3-dihydro-1H-inden-4-yl)urea]	60 to 80	
CCCCOc1ccccc1-c1nnc2n1CCN(CCOc1ccc(NC(=O)Nc3cc(C(C)(C)C)nn3-c3ccc(C)cc3)c3c1CCC3)C2 [Compound 32, 1-(7-{2-[3-(2-butoxyphenyl)-5,6-dihydro[1,2,4]triazolo[4,3-a]pyrazin-7(8H)-yl]ethoxy}-2,3-dihydro-1H-inden-4-yl)-3-[3-tert-butyl-1-(4-methylphenyl)-1H-pyrazol-5-yl]urea]	80 to 100	
COc1c(NC(=O)Nc2ccc(OCCN3CCN(CC4CC4)C(=O)C3)c3c2CCC3)cc(C(C)(C)C)cc1NC(=O)C1CC1 [Compound 64, N-(5-tert-butyl-3-{[(7-{2-[4-(cyclopropylmethyl)-3-oxopiperazin-1-yl]ethoxy}-2,3-dihydro-1H-inden-4-yl)carbamoyl]amino}-2-methoxyphenyl)cyclopropanecarboxamide]	20 to 40	
COc1c(NC(=O)Nc2ccc(OCCN3CCn4c(nnc4-c4cccc(O)c4)C3)c3c2CCC3)cc(C(C)(C)C)cc1NS(C)(=O)=O [Compound 46, N-(5-tert-butyl-3-{[(7-{2-[3-(3-hydroxyphenyl)-5,6-dihydro[1,2,4]triazolo[4,3-a]pyrazin-7(8H)-yl]ethoxy}-2,3-dihydro-1H-inden-4-yl)carbamoyl]amino}-2-methoxyphenyl)methanesulfonamide]		inhibition at 0.1 µM: 60 to 80%
CCCSc1ccccc1-c1nnc2n1CCN(CCOc1ccc(NC(=O)Nc3cc(C(C)(C)C)cc(NS(=O)(=O)CC)c3OC)c3c1CCC3)C2 [Compound 50, N-[5-tert-butyl-2-methoxy-3-({[7-(2-{3-[2-(propylsulfanyl)phenyl]-5,6-dihydro[1,2,4]triazolo[4,3-a]pyrazin-7(8H)-yl}ethoxy)-2,3-dihydro-lH-inden-4-yl]carbamoyl}amino)phenyl] ethanesulfonamide]		P38α Inhibition (Concentration 1 μM): +++++ (+++++ = Inhibition ≥80% ≥ 100%)
Cc1ccccc1-n1nc(C(C)(C)C)cc1NC(=O)Nc1ccc(OCCN2CCN(CC3CC3)C(=O)C2)c2c1CCC2 [Compound 62, 1-[3-tert-butyl-1-(2-methylphenyl)-1H-pyrazol-5-yl]-3-(7-{2-[4-(cyclopropylmethyl)-3-oxopiperazin-1-yl]ethoxy}-2,3-dihydro-1H-inden-4-yl)urea]	40 to 60	
CC(C)(C)c1cc(NC(=O)Nc2ccc(OCCN3CCn4c(nnc4-c4ccc(O)cc4O)C3)c3c2CCC3)n(-c2ccc(O)c(Cl)c2)n1 [Compound 63, 1-[3-tert-butyl-1-(3-chloro-4-hydroxyphenyl)-1H-pyrazol-5-yl]-3-(7-{2-[3-(2,4-dihydroxyphenyl)-5,6-dihydro[1,2,4]triazolo[4,3-a]pyrazin-7(8H)-yl]ethoxy}-2,3-dihydro-1H-inden-4-yl)urea]		inhibition at 0.1 µM: 60 to 80%
COc1c(NC(=O)Nc2ccc(OCCN3CCn4c(nnc4-c4ccccc4O)C3)c3c2CCC3)cc(C(C)(C)C)cc1NS(C)(=O)=O [Compound 40, N-(5-tert-butyl-3-{[(7-{2-[3-(2-hydroxyphenyl)-5,6-dihydro[1,2,4]triazolo[4,3-a]pyrazin-7(8H)-yl]ethoxy}-2,3-dihydro-1H-inden-4-yl)carbamoyl]amino}-2-methoxyphenyl)methanesulfonamide]	80 to 100	
Cc1ccc(-n2nc(C(C)(C)C)cc2NC(=O)Nc2ccc(OCCN3CCN(CC4CCCC4)C(=O)C3)c3c2CCC3)cc1 [Compound 21, 1-[3-tert-butyl-1-(4-methylphenyl)-1H-pyrazol-5-yl]-3-(7-{2-[4-(cyclopentylmethyl)-3-oxopiperazin-1-yl]ethoxy}-2,3-dihydro-1H-inden-4-yl)urea]	80 to 100	
